Earlier results on one substance are cited in patent publication US9238073B2, “Pharmaceutical composition containing sympathomimetic amine salt and co-distillable additive” (Wyeth LLC, priority 2006, dated 2016).

The conditions of the series: (R)-methamphetamine from reduction of (-)-pseudoephedrine.

As to (R)-methamphetamine, the “psychoactivity relative to (S)-methamphetamine” value is reported as “one-tenth”.
